Assay results as given in patent US20260250290A1 (BRISTOL-MYERS SQUIBB COMPANY, priority 2023, published 2026).

Target: T1, full length SGK1 (Homo sapiens, UniProt O00141)
T1 construct: 125 μM full length SGK1 (Life Technologies Part #PR7358A); purchased Life Technologies PR7358A
T1 sequence (O00141 1-431): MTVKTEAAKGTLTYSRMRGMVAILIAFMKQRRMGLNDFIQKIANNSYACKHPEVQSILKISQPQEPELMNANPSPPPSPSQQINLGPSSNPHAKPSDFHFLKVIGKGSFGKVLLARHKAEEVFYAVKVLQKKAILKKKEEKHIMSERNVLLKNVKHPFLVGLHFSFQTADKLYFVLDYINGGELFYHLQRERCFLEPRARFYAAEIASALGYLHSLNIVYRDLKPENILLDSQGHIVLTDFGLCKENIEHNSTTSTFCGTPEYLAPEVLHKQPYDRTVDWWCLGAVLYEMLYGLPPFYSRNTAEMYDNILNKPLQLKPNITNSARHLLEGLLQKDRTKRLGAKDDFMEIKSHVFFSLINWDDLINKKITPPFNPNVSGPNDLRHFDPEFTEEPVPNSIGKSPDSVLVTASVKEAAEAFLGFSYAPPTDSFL
Test: SGK1 inhibition Assay A (Caliper LabChip electrophoretic separation of fluorescent peptide substrate and phosphorylated product)
Format: biochemical
Details: Assay A; 20 μM ATP, 40 min incubation; read-out: SGK1 IC50

| Compound | IC50 |
| --- | --- |
| CC(=O)Nc1ccc(C(=O)N[C@@H]2CCCN(c3cc(C4=CCN(C(C)=O)C4)n4ncnc(N)c34)C2)cc1 [Example 466, (R)-4-acetamido-N-(1-(7-(1-acetyl-2,5-dihydro-1H-pyrrol-3-yl)-4-aminopyrrolo[2,1-f][1,2,4]triazin-5-yl)piperidin-3-yl)benzamide] | 50 nM |
| CC(=O)N1CC=C(c2cc(N3CCC[C@@H](NC(=O)c4ccc(S(C)(=O)=O)cc4)C3)c3c(N)ncnn23)C1 [Example 468, (R)-N-(1-(7-(1-acetyl-2,5-dihydro-1H-pyrrol-3-yl)-4-aminopyrrolo[2,1-f][1,2,4]triazin-5-yl)piperidin-3-yl)-4-(methylsulfonyl)benzamide] | 26 nM |
| CC(=O)N1CC=C(c2cc(N3CCC[C@@H](NC(=O)c4ccccc4N(C)C)C3)c3c(N)ncnn23)C1 [Example 470, (R)-N-(1-(7-(1-acetyl-2,5-dihydro-1H-pyrrol-3-yl)-4-aminopyrrolo[2,1-f][1,2,4]triazin-5-yl)piperidin-3-yl)-2-(dimethylamino)benzamide] | 75 nM |
| CC(=O)N1CC=C(c2cc(N3CCC[C@@H](NC(=O)c4nn(-c5ccccc5)nc4C)C3)c3c(N)ncnn23)C1 [Example 471, (R)-N-(1-(7-(1-acetyl-2,5-dihydro-1H-pyrrol-3-yl)-4-aminopyrrolo[2,1-f][1,2,4]triazin-5-yl)piperidin-3-yl)-5-methyl-2-phenyl-2H-1,2,3-tricazole-4-arboxamide] | 146 nM |
| CC(=O)N1CC=C(c2cc(N3CCC[C@@H](NC(=O)c4snnc4C)C3)c3c(N)ncnn23)C1 [Example 473, (R)-N-(1-(7-(1-acetyl-2,5-dihydro-1H-pyrrol-3-yl)-4-aminopyrrolo[2,1-f][1,2,4]triazin-5-yl)piperidin-3-yl)-4-methyl-1,2,3-thiadiazole-5-carboxamide] | 107 nM |
| COc1nc(C)c(C(=O)N[C@@H]2CCCN(c3cc(C4=CCN(C(C)=O)C4)n4ncnc(N)c34)C2)s1 [Example 474, (R)-N-(1-(7-(1-acetyl-2,5-dihydro-1H-pyrrol-3-yl)-4-aminopyrrolo[2,1-f][1,2,4]triazin-5-yl)piperidin-3-yl)-2-methoxy-4-methylthiazole-5-carboxamide] | 45 nM |
| COC(=O)N1CC=C(c2cc(N3CCC[C@@H](NC(=O)c4ccc(C(F)F)s4)C3)c3c(N)ncnn23)C1 [Example 480, Methyl (R)-3-(4-amino-5-(3-(5-(difluoromethyl)thiophene-2-carboxamido)piperidin-1-yl)pyrrolo[2,1-f][1,2,4]triazin-7-yl)-2,5-dihydro-1H-pyrrole-1-carboxylate] | 3 nM |
| Nc1ncnn2c(-c3ccnc(C(F)F)c3)cc(N3CCC[C@@H](NC(=O)c4sc(Cl)cc4O)C3)c12 [Example 481, (R)-N-(1-(4-amino-7-(2-(difluoromethyl)pyridin-4-yl)pyrrolo[2,1-f][1,2,4]triazin-5-yl)piperidin-3-yl)-5-chloro-3-hydroxythiophene-2-carboxamide] | 16 nM |
| Cc1nc(C)c(C(=O)N[C@@H]2CCCN(c3cc(-c4ccnc(C(F)F)c4)n4ncnc(N)c34)C2)s1 [Example 485, (R)-N-(1-(4-amino-7-(2-(difluoromethyl)pyridin-4-yl)pyrrolo[2,1-f][1,2,4]triazin-5-yl)piperidin-3-yl)-2,4-dimethylthiazole-5-carboxamide] | 26 nM |
| CC(C)c1cc(C(=O)N[C@@H]2CCCN(c3cc(-c4ccnc(C(F)F)c4)n4ncnc(N)c34)C2)[nH]n1 [Example 486, (R)-N-(1-(4-amino-7-(2-(difluoromethyl)pyridin-4-yl)pyrrolo[2,1-f][1,2,4]triazin-5-yl)piperidin-3-yl)-3-isopropyl-1H-pyrazole-5-carboxamide] | 27 nM |
| N#Cc1ccc(-c2cc(N3CCC[C@@H](NC(=O)c4ccc(C(F)F)s4)C3)c3c(N)ncnn23)cn1 [Example 487, (R)-N-(1-(4-amino-7-(6-cyanopyridin-3-yl)pyrrolo[2,1-f][1,2,4]triazin-5-yl)piperidin-3-yl)-5-(difluoromethyl)thiophenc-2-carboxamide] | 3 nM |
| Nc1ncnn2c(-c3ccnc(C(F)F)c3)cc(N3CCC[C@@H](NC(=O)c4cc5ccccc5[nH]4)C3)c12 [Example 488, (R)-N-(1-(4-amino-7-(2-(difluoromethyl)pyridin-4-yl)pyrrolo[2,1-f][1,2,4]triazin-5-yl)piperidin-3-yl)-1H-indole-2-carboxamide] | 1 nM |
| CC(=O)N1CC=C(c2cc(N3CCC[C@@H](NC(=O)c4cc5cnccc5[nH]4)C3)c3c(N)ncnn23)C1 [Example 490, (R)-N-(1-(7-(1-acetyl-2,5-dihydro-1H-pyrrol-3-yl)-4-aminopyrrolo[2,1-f][1,2,4]triazin-5-yl)piperidin-3-yl)-1H-pyrrolo[3,2-c]pyridine-2-carboxamide] | 24 nM |

The next lines start with the values.

| IC50 | Compound |
| --- | --- |
| 64 nM | CC(=O)N1CC=C(c2cc(N3CCC[C@@H](NC(=O)c4cccc(N(C)C)c4)C3)c3c(N)ncnn23)C1 [Example 465, (R)-N-(1-(7-(1-acetyl-2,5-dihydro-1H-pyrrol-3-yl)-4-aminopyrrolo[2,1-f][1,2,4]triazin-5-yl)piperidin-3-yl)-3-(dimethylamino)benzamide] |
| 64 nM | CC(=O)N1CC=C(c2cc(N3CCC[C@@H](NC(=O)c4ccc5c(c4)OCO5)C3)c3c(N)ncnn23)C1 [Example 467, (R)-N-(1-(7-(1-acetyl-2,5-dihydro-1H-pyrrol-3-yl)-4-aminopyrrolo[2,1-f][1,2,4]triazin-5-yl)piperidin-3-yl)benzo[d][1,3]dioxole-5-carboxamide] |
| 62 nM | CC(=O)N1CC=C(c2cc(N3CCC[C@@H](NC(=O)c4sc(C)nc4C)C3)c3c(N)ncnn23)C1 [Example 472, (R)-N-(1-(7-(1-acetyl-2,5-dihydro-1H-pyrrol-3-yl)-4-aminopyrrolo[2,1-f][1,2,4]triazin-5-yl)piperidin-3-yl)-2,4-dimethylthiazole-5-carboxamide] |
| 771 nM | COC(=O)C12CC(C(=O)N[C@@H]3CCCN(c4cc(C5=CCN(C(C)=O)C5)n5ncnc(N)c45)C3)(C1)C2 [Example 478, Methyl(R)-3-((1-(7-(1-acetyl-2,5-dihydro-1H-pyrrol-3-yl)-4-aminopyrrolo[2,1-f][1,2,4]triazin-5-yl)piperidin-3-yl)carbamoyl)bicyclo[1.1.1]pentane-1-carboxylate] |
| 4 nM | Nc1ncnn2c(-c3ccnc(C(F)F)c3)cc(N3CCC[C@@H](NC(=O)c4ccc(Cl)s4)C3)c12 [Example 483, (R)-N-(1-(4-amino-7-(2-(difluoromethyl)pyridin-4-yl)pyrrolo[2,1-f][1,2,4]triazin-5-yl)piperidin-3-yl)-5-chlorothiophene-2-carboxamide] |
| 4 nM | Nc1ncnn2c(-c3ccnc(C(F)F)c3)cc(N3CCC[C@@H](NC(=O)c4cccs4)C3)c12 [Example 484, (R)-N-(1-(4-amino-7-(2-(difluoromethyl)pyridin-4-yl)pyrrolo[2,1-f][1,2,4]triazin-5-yl)piperidin-3-yl)thiophene-2-carboxamide] |
| 53 nM | Nc1ncnn2c(-c3ccnc(C(F)F)c3)cc(N3CCC[C@@H](NC(=O)c4nc5ccccc5[nH]4)C3)c12 [Example 489, (R)-N-(1-(4-amino-7-(2-(difluoromethyl)pyridin-4-yl)pyrrolo[2,1-f][1,2,4]triazin-5-yl)piperidin-3-yl)-1H-benzo[d]imidazole-2-carboxamide] |
